# Measured values taken from patent US10682310B2, “Therapeutic compounds and formulations for intranasal delivery” (priority 2015, dated 2020).
# Several values for one entry are separate records, joined by “and”; a condition that tells them apart may be missing. Identical values can stand only once. Counter-ions that a name gives are not always drawn.
# Key:
# MDCKII-wt monolayer = assay: Membrane permeation across MDCKII-wt monolayers (Transwell)
# Method: (§1) In vitro permeation studies were also performed on prodrug/enzyme mixtures prepared at various prodrug and enzyme concentrations. […] The experiments were carried out as follows. Maden Darby Canine Kidney-II wild type (MDCK-IIwt) cells were plated on thin membranes in a six well Transwell apparatus. Following confluence and washing, assay buffer (PBS, pH 7.4) was introduced into the basal side of the membrane. At time zero, solutions of various concentrations of prodrug were combined with 0.25 U/ml of A.O protease and introduced on the […] side of the membrane. Aliquots were then taken, with replacement, from both the basal and apical sides, and assayed for both drug and prodrug. The integrity of the membranes throughout the experiment was confirmed by transepithelial resistance (TEER) and inulin permeation measurements.
# (§2) Following previously published procedures (Kapoor M, et al., AAPS J, 2014, 16, 3, 577-585; and Kapoor M, et al., Mol Pharm, 2013, 10, 9, 519-3524), Madin Darby canine kidney II wild type (MDCKII-wt: passages between 10 and 20) cells were cultured and grown as monolayers in 12-well Transwell plates ([…] pore size, polyester, Corning). Transepithelial electrical resistance (TEER) was measured to assure membrane integrity just prior to conversion/permeation experiments. TEER and a Lucifer yellow dye permeability assay were used to reassess monolayer integrity at the conclusion of each experiment.
# (§3) In separate experiments, solutions containing 900 μM AVFp or AVFm were rapidly mixed with A.O. protease (4 U/mL) in assay buffer (pH 7.4 at 32° C.), and administered at time zero on the apical side of MDCKII-wt monolayers cultured in a 12-well Transwell plate (Kapoor M, et al., AAPS J, 2014, 16, 3, 577-585; and Kapoor M, et al., Mol Pharm, 2013, 10, 9, 519-3524).
# (§4) To assess transport of MDZ through the MDCKII-wt monolayer membrane, MDZ, 55 μM (S=1) was introduced on the apical side of the monolayer in a 12-well Transwell, and accumulation of MDZ on the basal side was assayed as a function of time.
# [1] = tested on: A.O. protease (Aspergillus Oryzae); assay: Enzyme kinetics of prodrug conversion by A.O. protease (HPLC, integrated Michaelis-Menten fit); format: biochemical; conditions: for conversion of prodrug to DZP: 480 μM prodrug, A.O. protease 2-8 U/mL; for conversion of prodrug to DZP / Km / Vmax: assay buffer pH 7.4, 32° C.; for extent of conversion by A.O. protease: chirally pure prodrug; for catalytic efficiency as Vmax/(U/mL of A.O. protease): pH 7.4, 32° C.
# Method: Enzyme Kinetics. To determine the enzyme kinetic parameters KM and Vmax for a prodrug/enzyme system, various concentrations of prodrug were incubated in assay buffer, pH 7.4 containing A.O. protease, at 32° C., for a fixed time period t, at which point the reaction was stopped using methanol as an enzyme denaturant. […] The reactions were carried out to times when there was already substantial conversion. Concentrations of product, Cd(t) were fit against initial prodrug concentrations, Cp (0), using the integrated Michaelis-Menten equation: Cd(t)+KM ln[1−Cd(t)/Cp(0)]=Vmaxt (1) Fitting was carried out using the Matlab nlinfit function (Mathworks).
# AVFm and AVFp (each at 480 μM) were incubated with A.O. protease (2-8 U/mL) in assay buffer over various time intervals in assay buffer pH 7.4 at 32° C.
# The Michaelis Menten parameters for AVFp reactions were determined by carrying out reactions for t=5 min in solutions containing A.O. protease.
# The extent of reaction was determined after t=12 min with MDZ-pro incubated, at different concentrations, in assay buffer with 4 U/ml A.O. protease.
# A.O. protease = assay: Conversion of prodrug by A.O. protease on apical side of MDCKII-wt monolayers, supersaturated drug; format: in vitro ADME, Aspergillus Oryzae; conditions: for precipitates of supersaturated drug formed from prodrug/enzyme: apical compartment after prodrug/A.O. protease administration
# Method: The same was also shown for MDZ-pro. The experiments were carried out as follows.
# Appropriate molar concentrations of MDZ-pro equivalent to supersaturated MDZ solution were incubated with the converting enzyme in assay buffer, pH 7.4 at 32° C. (nasal temperature). Supersaturation potential, S, was calculated as the ratio between the molar concentration of administered MDZ-pro and the molar concentration of saturated MDZ:
# Rapidly mixed solutions of chirally pure MDZ-pro and A.O protease were administered onto the apical side of MDCKII-wt monolayers and MDZ-pro, and MDZ concentrations were analyzed on both the apical and basal sides as a function of time. An example of prodrug and drug kinetics in the apical compartment is shown in FIG. 5b (MDZ-pro 326 μM, A.O. protease 16 U/mL). Rapid conversion of prodrug (complete within 30 min) was followed by an extended residence of supersaturated drug in the apical chamber, with supersaturation reached in less than 5 min. […] Apical concentrations of MDZ were close to those predicted, based on a two compartment model with input due to enzymatic conversion of MDZ-pro to MDZ, with assumed rate constant kconv=Vmax/KM.
# MDCKII-wt monolayers = assay: Monolayer intactness by TEER and Lucifer yellow permeability after 2 h exposure; conditions: A.O. protease 1-16 U/mL
# Method: as §2
# [2] = MDZ equilibrium solubility in assay buffer; format: physicochemical; conditions: aqueous buffer, thermodynamic from solid; assay buffer pH 7.4, 32° C.
# Method: Equilibrium solubility of MDZ in assay buffer was determined at three temperatures: 25, 32 and 37° C. There was essentially no effect of temperature on drug thermodynamic solubility within this temperature range.
# [3] = Membrane permeation across MDCKII-wt monolayers (Transwell); conditions: dog, MDCK
# Method: as §1, §2, §3, §4
# [4] = AVFp to DZP, 0.25 U/ml A.O. protease, t=5 min
# [5] = MDZ-pro to MDZ, 4 U/ml A.O. protease, t=12 min, estimates (s.e.m.)
# [6] = MDZ-pro 326 μM, A.O. protease 16 U/mL, apical compartment
structure (smiles),measurement,setting,value
"CN(C(=O)CNC(=O)[C@@H](N)CCCCN)c1ccc(Cl)cc1C(=O)c1ccccc1 [AVF, Avizafone]",permeation of prodrug across the membrane,MDCKII-wt monolayer; AVF/enzyme administered on the apical side,not to permeate the membrane significantly
same,permeation of prodrug across the monolayer,"MDCKII-wt monolayer; in the absence of enzyme, AVF pure or mix (data not shown)",negligible permeation
CN(C(=O)CNC(=O)[C@@H](N)CCCCN)c1ccc(Cl)cc1C(=O)c1ccccc1 [AVFm],conversion of prodrug to DZP,[1],~70%
"CN(C(=O)CNC(=O)[C@@H](N)CCCCN)c1ccc(Cl)cc1C(=O)c1ccccc1 [AVFp, Avizafone Hydrochloride]",conversion of prodrug to DZP,[1]; Hydrochloride,100%
same,Km,[1]; [4],3.38 ± 0.34 mM
same,Vmax,[1]; [4],0.518 ± 0.030 mM/min
same,extent of conversion by A.O. protease,[1],complete conversion
same,catalytic efficiency as Vmax/(U/mL of A.O. protease),[1],2.07 mM/min/(U/ml)
same,rate and amount of DZP permeation compared with enantiomeric mixture AVFm,"MDCKII-wt monolayer; 900 μM prodrug, A.O. protease 4 U/mL, apical, pH 7.4, 32° C., each time point",greater
"CN1C(=O)CN=C(c2ccccc2)c2cc(Cl)ccc21 [DZP, diazepam]",precipitates of supersaturated drug formed from prodrug/enzyme,A.O. protease,no evidence of formation of DZP precipitates
"Cc1ncc2n1-c1ccc(Cl)cc1C(c1ccccc1F)=NC2 [MDZ, midazolam]",% TEER values,MDCKII-wt monolayers,unaffected
same,precipitates of supersaturated drug formed from prodrug/enzyme,A.O. protease,none were found
same,solubility thermodynamic,[2],55 µM and 15.5 µg/mL
same,clearance CL of the membrane,"MDCKII-wt monolayer; MDZ 55 μM (S=1) apical, 12-well Transwell, two compartment model fit",0.11 ± 0.01 mL/h
same,Papp A→B at 55 μM,[3],26.5 ×10⁻⁶ cm/s
"Cc1ncc(CNC(=O)[C@@H](N)CCCCN)n1-c1ccc(Cl)cc1C(=O)c1ccccc1F [MDZ-pro, Midazolam L-Lysine Prodrug]",% TEER values,MDCKII-wt monolayers,unaffected
same,Km,[1]; [5],5.86 ± 0.83 mM
same,Vmax,[1]; [5],0.233 ± 0.022 mM/min
same,extent of conversion by A.O. protease,[1],complete conversion
same,catalytic efficiency as Vmax/(U/mL of A.O. protease),[1],0.0582 mM/min/(U/ml)
same,time to complete conversion of prodrug,A.O. protease; [6],≤ 30 min
same,time to reach supersaturation,A.O. protease; [6],less than 5 min
same,conversion via endogenous enzymes,"MDCKII-wt monolayer; MDZ-pro alone (without enzyme), apical, 2 h, up to 2 mM",negligible conversion
same,prodrug permeation through MDCKII-wt monolayers,"MDCKII-wt monolayer; MDZ-pro alone (without enzyme), apical, 2 h, up to 2 mM initial prodrug concentration",negligible prodrug permeation
